# Test results: patent US20250120902A1, “POSTBIOTIC FERMENT COMPOSITION FOR ROOT, SCALP, AND HAIR CARE AND METHOD OF PREPARING AND USING THE” (THE ROOTIST INC., priority 2023, published 2025)
# Values joined by “and” are separate entries in the source; they are usually repeats but may differ in a detail not shown here. Equal entries are not always repeated.
# Test system: 3D hair follicle organoids (HFDPC and HEKn cells)
# Experiment: Hair follicle organoid growth test
# Assay type: cell-based, Human
# Details: 1 μM
# Description: Human Primary Dermal Papilla Cells (HFDPC) were collected from a person and provided by Kyungpook National University. Human Primary Epidermal Keratinocytes, neonatal foreskin (HEKn) cells were purchased from ATCC. […] The hair follicle organoid growth test aims to mass-produces hair follicle organoids by proliferating dermal papilla cells isolated from adult hair tissue in vitro, mixing them with keratinocytes, and then co-culturing them on a specially designed particle pattern substrate ([…], 150 spheroids/well). The experiment enables the assessment of the sample's impact on hair growth by monitoring changes in the diameter of keratinocyte pillars within the developed hair follicle organoid. In this test, to differentiate and validate the growth of HFDPC and HEKn cells, HFDPC cells were stained with Cell tracker CM-DilTM and HEKn cells were stained with Cell tracker Green CMFDATM. Stained HFDPC cells underwent filtration using a 15 μm strainer before being combined with DMEM medium to yield a density of 5×10^4 cells/well. Similarly, HEKn cells were adjusted to a density of 3×10^4 cells/well. […] 4) The test result measurements were initially analyzed using the Linear Mixed Model (LMM), which accounts for the random effects of each well. However, due to the lack of normality, the data were re-analyzed using the Generalized Linear Mixed Model (GLMM), which is suitable for non-normal data. […]
smiles,measurement,setting,value
"Nc1cc(N2CCCCC2)nc(N)[n+]1[O-] [Minoxidil, minoxidil]",Hair follicle organoid growth rate,"day 3, compared to the untreated group (100%)",114.67% and 114.67 ± 5.69%
same,hair follicle organoid diameter,"day 3, estimated mean ± standard deviation",25.77 ± 1.28 μm
